For orientation: melting point means the temperature, or range, at which the solid turns liquid. Molecule `NS(=O)(=O)c1cc(C#Cc2ncn3c(C(F)(F)F)cc(-c4ccc(C(F)(F)F)cc4)nc23)c(F)cc1F` [Example 177, 2,4-Difluoro-5-[4-trifluoromethyl-2-(4-trifluoromethyl-phenyl)-imidazo[1,5-a]pyrimidin-8-ylethynyl]-benzenesulfonamide] showed a melting point of 247 °C. The same measure for `O=S(=O)(c1ccc(C#Cc2cnn3c(C(F)F)cc(-c4cccc(C(F)(F)F)c4)nc23)s1)N(CCO)CCO` [Example 264, 5-[7-Difluoromethyl-5-(3-trifluoromethyl-phenyl)-pyrazolo[1,5-a]pyrimidin-3-ylethynyl]-thiophene-2-sulfonic acid bis-(2-hydroxy-ethyl)-amide]: 174 °C; for `NC(=O)c1ccc(C#Cc2cnc3c(C(F)(F)F)cc(-c4ccc(C(F)(F)F)cc4)cn23)cc1` [Example 203, 4-[8-Trifluoromethyl-6-(4-trifluoromethyl-phenyl)-imidazo[1,2-a]pyridin-3-ylethynyl]-benzamide]: 286 °C. For `NS(=O)(=O)c1ccc(C#Cc2cnc3c(C(F)(F)F)cc(-c4ccc(C(F)(F)F)cc4)cn23)cc1` [Example 181, 4-[8-Trifluoromethyl-6-(4-trifluoromethyl-phenyl)-imidazo[1,2-a]pyridin-3-ylethynyl]-benzenesulfonamide], the melting point is 278 to 280 °C. `NS(=O)(=O)c1ccc(C#Cc2cnn3c(C4CC4)cc(-c4ccc(C(F)(F)F)cc4)nc23)cc1` [Example 76, 4-[7-Cyclopropyl-5-(4-trifluoromethyl-phenyl)-pyrazolo[1,5-a]pyrimidin-3-ylethynyl]-benzenesulfonamide] showed a melting point of 228 to 230 °C. As to `CC(=O)Nc1ccc(C#Cc2cnn3c(C(F)(F)F)cc(-c4ccc(C(F)(F)F)cc4)nc23)cc1` [Example 207, N-{4-[7-Trifluoromethyl-5-(4-trifluoromethyl-phenyl)-pyrazolo[1,5-a]pyrimidin-3-ylethynyl]-phenyl}-acetamide], the melting point was 238 °C. As to `O=S(=O)(O)c1cnc(C#Cc2cnn3c(C(F)(F)F)cc(-c4ccc(C(F)(F)F)cc4)nc23)s1` [Example 20, 2-[7-Trifluoromethyl-5-(4-trifluoromethyl-phenyl)-pyrazolo[1,5-a]pyrimidin-3-ylethynyl]-thiazole-5-sulfonic acid], the melting point is greater than 295 °C. `OCc1ccc(C#Cc2cnn3c(C(F)(F)F)cc(-c4ccc(C(F)(F)F)cc4)nc23)cc1` [Example 184, {4-[7-Trifluoromethyl-5-(4-trifluoromethyl-phenyl)-pyrazolo[1,5-a]pyrimidin-3-ylethynyl]-phenyl}-methanol] showed a melting point of 200 to 202 °C. The same measure for `CN(C)CCNS(=O)(=O)c1ccc(C#Cc2ncn3c(C(F)(F)F)cc(-c4ccc(C(F)(F)F)cc4)nc23)s1` [Example 267, 5-[4-Trifluoromethyl-2-(4-trifluoromethyl-phenyl)-imidazo[1,5-a]pyrimidin-8-ylethynyl]-thiophene-2-sulfonic acid (2-dimethylamino-ethyl)-amide]: 178 °C; for `NS(=O)(=O)c1cncc(C#Cc2cnn3c(C4CC4)cc(-c4ccc(C(F)(F)F)cc4)nc23)c1` [Example 79, 5-[7-Cyclopropyl-5-(4-trifluoromethyl-phenyl)-pyrazolo[1,5-a]pyrimidin-3-ylethynyl]-pyridine-3-sulfonic acid amide]: 276 to 277 °C; for `Cc1nc(N)ccc1C#Cc1cnn2c(C(F)(F)F)cc(-c3ccc(C(F)(F)F)cc3)nc12` [Example 128, 6-Methyl-5-[7-trifluoromethyl-5-(4-trifluoromethyl-phenyl)-pyrazolo[1,5-a]pyrimidin-3-ylethynyl]-pyridin-2-ylamine]: 251 to 254 °C. `NS(=O)(=O)c1ccc(C#Cc2cnn3c(C(F)(F)F)cc(-c4ccc(Cl)c(Cl)c4)nc23)cc1` [Example 94, 4-[5-(3,4-Dichloro-phenyl)-7-trifluoromethyl-pyrazolo[1,5-a]pyrimidin-3-ylethynyl]-benzenesulfonamide] came in with a melting point of 273 to 274 °C. Regarding `FC(F)(F)c1cc(-c2ccc(Cl)cc2)nc2c(C#Cc3cccnc3)cnn12` [Example 21, 5-(4-Chloro-phenyl)-3-pyridin-3-ylethynyl-7-trifluoromethyl-pyrazolo[1,5-a]pyrimidine], the melting point is 214 to 215 °C. In turn, `CCOc1cccc(-c2cc(C(F)F)n3ncc(C#Cc4cccc(S(N)(=O)=O)c4)c3n2)c1` [Example 201, 3-[7-Difluoromethyl-5-(3-ethoxy-phenyl)-pyrazolo[1,5-a]pyrimidin-3-ylethynyl]-benzenesulfonamide] displayed a melting point of 167 to 168 °C. As for `Cc1cc(-c2cc(C(F)(F)F)n3ncc(C#Cc4ccc(S(N)(=O)=O)s4)c3n2)ccc1Cl` [Example 114, 5-[5-(4-Chloro-3-methyl-phenyl)-7-trifluoromethyl-pyrazolo[1,5-a]pyrimidin-3-ylethynyl]-thiophene-2-sulfonic acid amide], the melting point turned out to be 216 °C. `CC(CO)(CO)NS(=O)(=O)c1cccc(C#Cc2cnn3c(C(F)F)cc(-c4ccc(C(F)(F)F)cc4)nc23)c1` [Example 33, 3-[7-Difluoromethyl-5-(4-trifluoromethyl-phenyl)-pyrazolo[1,5-a]pyrimidin-3-ylethynyl]-N-(2-hydroxy-1-hydroxymethyl-1-methyl-ethyl)-benzene sulfonamide] gave a melting point of 172 to 174 °C. In turn, `NS(=O)(=O)c1cncc(C#Cc2cnn3c(C(F)F)cc(-c4ccc(C(F)(F)F)cc4)nc23)c1` [Example 30, 5-[7-Difluoromethyl-5-(4-trifluoromethyl-phenyl)-pyrazolo[1,5-a]pyrimidin-3-ylethynyl]-pyridine-3-sulfonic acid amide] showed a melting point of 238 °C. Molecule `O=S(=O)(NCCO)c1cccc(C#Cc2cnn3c(C(F)F)cc(-c4ccc(C(F)(F)F)cc4)nc23)c1` [Example 147, 3-[7-Difluoromethyl-5-(4-trifluoromethyl-phenyl)-pyrazolo[1,5-a]pyrimidin-3-ylethynyl]-N-(2-hydroxy-ethyl)-benzenesulfonamide] showed a melting point of 113 to 115 °C. `NS(=O)(=O)c1cccc(C#Cc2cnn3c(C(F)F)cc(-c4ccc(C(F)(F)F)cc4)nc23)c1` [Example 42, 3-[7-Difluoromethyl-5-(4-trifluoromethyl-phenyl)-pyrazolo[1,5-a]pyrimidin-3-ylethynyl]-benzenesulfonamide] gave a melting point of 246 to 247 °C. In turn, `NS(=O)(=O)c1ccc(C#Cc2cnn3c(C(F)F)cc(-c4cccc(C(F)(F)F)c4)nc23)s1` [Example 160, 5-[7-Difluoromethyl-5-(3-trifluoromethyl-phenyl)-pyrazolo[1,5-a]pyrimidin-3-ylethynyl]-thiophene-2-sulfonic acid amide] came in with a melting point of 225 °C. As for `NS(=O)(=O)c1cccc(C#Cc2cnn3c(C(F)(F)F)cc(-c4ccc(Cl)cc4)nc23)c1` [Example 98, 3-[5-(4-Chloro-phenyl)-7-trifluoromethyl-pyrazolo[1,5-a]pyrimidin-3-ylethynyl]-benzenesulfonamide], the melting point was in the range of 218 to 220 °C. In turn, `O=S(=O)(NCCO)c1ccc(C#Cc2cnn3c(C(F)F)cc(-c4ccc(C(F)(F)F)cc4)nc23)cc1` [Example 140, 4-[7-Difluoromethyl-5-(4-trifluoromethyl-phenyl)-pyrazolo[1,5-a]pyrimidin-3-ylethynyl]-N-(2-hydroxy-ethyl)-benzenesulfonamide] displayed a melting point of 191 to 194 °C. `NS(=O)(=O)c1cncc(C#Cc2cnn3c(C(F)(F)F)cc(-c4ccc(C(F)(F)F)cc4)nc23)c1` [Example 5, 5-[7-Trifluoromethyl-5-(4-trifluoromethyl-phenyl)-pyrazolo[1,5-a]pyrimidin-3-ylethynyl]-pyridine-3-sulfonic acid amide] showed a melting point of 239 to 240 °C.

Molecule `FC(F)(F)c1cccc(-c2cc(C(F)(F)F)n3ncc(C#Cc4cccnc4)c3n2)c1` [Example 103, 3-Pyridin-3-ylethynyl-7-trifluoromethyl-5-(3-trifluoromethyl-phenyl)-pyrazolo[1,5-a]pyrimidine] registered a melting point of 173 °C. `O=S(=O)(NCc1ccncc1)c1ccc(C#Cc2cnn3c(C(F)(F)F)cc(-c4ccc(C(F)(F)F)cc4)nc23)s1` [Example 272, 5-[7-Trifluoromethyl-5-(4-trifluoromethyl-phenyl)-pyrazolo[1,5-a]pyrimidin-3-ylethynyl]-thiophene-2-sulfonic acid (pyridin-4-ylmethyl)-amide]: the melting point was determined as 170 °C. As to `Nc1cnc(C#Cc2cnn3c(C(F)(F)F)cc(-c4ccc(C(F)(F)F)cc4)nc23)cn1` [Example 286, 5-[7-Trifluoromethyl-5-(4-trifluoromethyl-phenyl)-pyrazolo[1,5-a]pyrimidin-3-ylethynyl]-pyrazin-2-ylamine], the melting point came out at 200 °C.

`N#Cc1cc(C#Cc2cnn3c(C(F)(F)F)cc(-c4ccc(C(F)(F)F)cc4)nc23)cnc1N` [Example 219, 2-Amino-5-[7-trifluoromethyl-5-(4-trifluoromethyl-phenyl)-pyrazolo[1,5-a]pyrimidin-3-ylethynyl]-nicotinonitrile] returned a melting point of 264 °C. With `NS(=O)(=O)c1cccc(C#Cc2cnn3c(C(F)(F)F)cc(-c4ccc(Cl)cc4)nc23)c1` [Example 99, 3-[5-(4-Chloro-phenyl)-7-trifluoromethyl-pyrazolo[1,5-a]pyrimidin-3-ylethynyl]-benzenesulfonamide], the melting point fell in the range of 290 to 293 °C. Take `NS(=O)(=O)c1ccc(C#Cc2cnc3c(C4CC4)cc(-c4ccc(C(F)(F)F)cc4)cn23)s1` [Example 224, 5-[8-Cyclopropyl-6-(4-trifluoromethyl-phenyl)-imidazo[1,2-a]pyridin-3-ylethynyl]-thiophene-2-sulfonic acid amide]: the melting point stood at 261 °C. The figure for `Cc1cc(-c2cc(C(F)(F)F)n3ncc(C#Cc4cccc(S(=O)(=O)NC(C)(C)CO)c4)c3n2)ccc1Cl` [Example 102, 3-[5-(4-Chloro-3-methyl-phenyl)-7-trifluoromethyl-pyrazolo[1,5-a]pyrimidin-3-ylethynyl]-N-(2-hydroxy-1,1-dimethyl-ethyl)-benzenesulfonamide] is 204 °C.

The values above are taken from patent US8063048B2, “Acetylenyl-pyrazolo-pyrimidine derivatives” (Hoffmann-La Roche Inc., priority 2005, dated 2011).
